Consider one compound from US6455518B2 (Novartis AG, priority 1996, dated 2002).

Structures are written as SMILES.

Series [1] deals with heart allograft. Kind of series: heterotopic heart allotransplantation model (DA donor, Lewis recipient). The class given is in vivo, rat. The text has this: The abdomen is then palpated daily to determine if the graft is still beating; in case of cessation of heartbeat, the experiment is terminated.
(§1) In both the kidney and heart allograft experiments, the termination point in long term survivors is 100 days. In all cases, the graft is removed at autopsy, fixed in buffered formalin, and embedded in paraffin. Four micron thick sections stained with hematoxylin and eosin are read for signs of rejection and scored as “no rejection”, or “marginal”, “slight”, “moderate”, or “severe” cellular rejection based on the extent of mononuclear cell infiltration and damage to the parenchyma (tubules in the kidney, myocytes in the heart).

The conditions of series [2]: rat, in vivo, iv.
Method: Whole blood concentrations of both compounds are determined by liquid chromatography-reversed isotope dilution (LC-RID).
The subject of series [3] is Spleen cells of BALB/c and CBA mice. Kind of series: two-way mouse mixed lymphocyte reaction (3H-thymidine incorporation). The class given is cell-based. Conditions: single compound; 3H-thymidine incorporation after four days culture. On the technique in general: Dividing cells build labelled thymidine or BrdU into new DNA.
Method: After four days, ^3H-thymidine is added. Sixteen hours later, the cells are harvested and ^3H-thymidine incorporation is measured by liquid scintillation counting. Cell proliferation is assessed in the absence of compounds (100% value) or in the presence of serially diluted compounds or combinations of compounds. The maximum ^3H thymidine incorporation (100% value) is around 240×10^3 cpm, and the background ^3H-thymidine incorporation in unstimulated cells is around 5×10^3 cpm. […] These IC70 values are converted into relative units with regard to the IC70 value of the respective single drug treatment.
In series [4] the test system is kidney allograft. Kind of series: orthotopic kidney allotransplantation model (DA donor, Lewis recipient). The note with it: for Histology of rejection: kidney. It counts as in vivo, rat.
From the text: Kidney transplantation is followed by contralateral nephrectomy 7 days later: at nephrectomy, the graft is macroscopically inspected, and if rejection is macroscopically evident, the experiment is terminated. Surviving animals are monitored daily for clinical signs of renal dysfunction.
as §1

Setting [5] is: heart, 40-O-(2-hydroxyethyl)-rapamycin 5.0 mg/kg daily oral.

In the case of `CO[C@H]1C[C@@H]2CC[C@@H](C)[C@@](O)(O2)C(=O)C(=O)N2CCCC[C@H]2C(=O)O[C@H]([C@H](C)C[C@@H]2CC[C@@H](OCCO)[C@H](OC)C2)CC(=O)[C@H](C)/C=C(\C)[C@@H](O)[C@@H](OC)C(=O)[C@H](C)C[C@H](C)/C=C/C=C/C=C/1C` [40-O-(2-hydroxyethyl)-rapamycin], the “minimum effective dose giving long term allograft survival” value is listed as more than 5.0 mg/kg in series [1] (heart allograft, single compound treatment, daily oral) and 5.0 mg/kg in series [4] (kidney allograft, single compound treatment, daily oral). Besides, the Histology of rejection result is reported as “severe” in series [1] (heart, 40-O-(2-hydroxyethyl)-rapamycin 1.0 mg/kg daily oral); “moderate” in series [1] (heart, 40-O-(2-hydroxyethyl)-rapamycin 2.5 mg/kg daily oral); “moderate” in series [1] (setting [5]); “moderate-severe” in series [4] (40-O-(2-hydroxyethyl)-rapamycin 1.0 mg/kg daily oral); “slight-moderate” in series [4] (40-O-(2-hydroxyethyl)-rapamycin 2.5 mg/kg daily oral); “moderate; ≧100 marginal” in series [4] (40-O-(2-hydroxyethyl)-rapamycin 5.0 mg/kg daily oral). Further, the “Survival (days)” value in series [1] (setting [5]) is listed as 22,23 days. This compound also returned a CL in series [2] of 3.2 ± 0.3 mL/min. In series [2], this compound showed a t1/2 of 56 ± 7 h. Moreover, in series [2] (1 mg/kg), the V is 52 ± 3 L/kg. Besides, the “IC70 (concentration at which the maximum proliferative response is inhibited by 70%)” value in series [3] was 0.3 nM.
